From ChEMBL document CHEMBL1145568, “Opioids and efflux transporters. Part 3: P-glycoprotein substrate activity of 3-hydroxyl addition to meperidine analogs” (Bioorg Med Chem Lett, 2008)
Where a name gives a salt, the structure may show the parent alone.

Biological target: P-gp (ABCB1) ATPase (Homo sapiens, UniProt P08183)
Test: Stimulation of Pgp ATPase activity at 200 uM by Pgp-Glo assay system relative to control
Conditions: read-out: Fold change

Chain of P-gp (ABCB1) ATPase (P08183 whole entry): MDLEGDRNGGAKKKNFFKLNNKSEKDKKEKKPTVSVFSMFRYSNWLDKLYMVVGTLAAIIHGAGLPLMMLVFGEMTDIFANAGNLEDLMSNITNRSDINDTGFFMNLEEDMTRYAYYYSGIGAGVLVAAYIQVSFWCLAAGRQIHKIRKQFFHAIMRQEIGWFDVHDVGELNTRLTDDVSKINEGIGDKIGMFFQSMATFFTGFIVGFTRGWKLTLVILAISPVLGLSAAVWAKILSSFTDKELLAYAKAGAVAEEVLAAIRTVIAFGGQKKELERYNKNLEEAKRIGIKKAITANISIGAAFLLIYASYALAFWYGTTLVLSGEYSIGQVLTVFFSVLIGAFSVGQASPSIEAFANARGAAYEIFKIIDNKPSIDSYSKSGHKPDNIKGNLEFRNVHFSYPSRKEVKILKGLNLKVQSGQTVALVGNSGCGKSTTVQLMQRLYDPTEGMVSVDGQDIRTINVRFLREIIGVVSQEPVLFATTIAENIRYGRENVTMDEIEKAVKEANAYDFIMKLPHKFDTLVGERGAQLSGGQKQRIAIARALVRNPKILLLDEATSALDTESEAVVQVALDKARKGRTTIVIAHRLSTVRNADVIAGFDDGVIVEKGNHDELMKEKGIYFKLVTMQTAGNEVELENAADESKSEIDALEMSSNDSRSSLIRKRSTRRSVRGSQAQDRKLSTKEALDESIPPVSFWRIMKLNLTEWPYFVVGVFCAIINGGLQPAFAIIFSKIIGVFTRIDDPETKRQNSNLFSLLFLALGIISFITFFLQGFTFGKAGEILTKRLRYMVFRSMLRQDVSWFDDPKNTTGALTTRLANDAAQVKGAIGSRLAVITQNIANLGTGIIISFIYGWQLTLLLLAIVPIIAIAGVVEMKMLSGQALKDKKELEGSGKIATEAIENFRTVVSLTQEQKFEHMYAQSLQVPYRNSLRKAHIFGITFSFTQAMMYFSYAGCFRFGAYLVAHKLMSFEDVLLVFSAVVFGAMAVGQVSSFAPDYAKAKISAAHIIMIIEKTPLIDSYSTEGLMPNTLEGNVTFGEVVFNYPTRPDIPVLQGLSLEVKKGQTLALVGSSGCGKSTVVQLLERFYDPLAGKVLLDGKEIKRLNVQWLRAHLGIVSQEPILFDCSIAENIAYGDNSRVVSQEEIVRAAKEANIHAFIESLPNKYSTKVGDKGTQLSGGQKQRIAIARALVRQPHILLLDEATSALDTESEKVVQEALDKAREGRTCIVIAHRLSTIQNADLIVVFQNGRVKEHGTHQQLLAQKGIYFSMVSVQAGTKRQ

| Structure (SMILES) | fold induction at 200 µM |
| --- | --- |
| CCOC(=O)C1(c2ccccc2)CCN(C)CC1 [PETHIDINE OXALATE] | 1.78 |
| CCOC(=O)C1(c2cccc(O)c2)CCN(C)CC1 [BEMIDONE] | 2.64 |
| CCC(=O)C1(c2cccc(O)c2)CCN(C)CC1 [KETOBEMIDONE OXALATE] | 4.89 |
| CCC(=O)C1(c2ccccc2)CCN(C)CC1 | 1.37 |
